Melting point data for 38 compounds are collected here from US8778963B2, “Hydroxylamine and oxime substituted imidazoquinolines, imidazopyridines, and imidazonaphthyridines” (3M Innovative Properties Company, priority 2003, dated 2014).

Each structure is given as a SMILES string. Counter-ions that a name gives are not always drawn.

By melting point is commonly meant the temperature, or range, at which the solid turns liquid. Turning to `CCCc1nc2c(N)nc(C)c(C)c2n1CCCCN(O)C(C)=O` [Example 15, N-[4-(4-Amino-6,7-dimethyl-2-propyl-1-imidazo[4,5-c]pyridin-1-yl)butyl]-N-hydroxyacetamide], the melting point fell in the range of 164 to 166 °C. With `CCCc1nc2c(N)nc3cccnc3c2n1CCCC(C)N(OC)C(C)=O` (centres unmarked) [Example 22, N-Methoxy-N-[4-(4-amino-2-propyl-1H-imidazo[4,5-c][1,5]naphthyridin-1-yl)1-methyl-butyl]acetamide] the figure was 158 to 159 °C; with `CCCc1nc2c(N)nc3ccccc3c2n1CCCC(C)N(OC)C(=O)NCC` (centres unmarked) [Example 12, 1-[4-(4-Amino-2-propyl-1H-imidazo[4,5-c]quinolin-1-yl)-1-methylbutyl]-3-ethyl-1-methoxyurea], 193 to 194 °C. Compound `CCCc1nc2c(N)nc3cccnc3c2n1CCCCN(OC)C(=O)c1ccccc1` [Example 2, N-[4-(4-Amino-2-propyl-1H-imidazo[4,5-c][1,5]naphthyridin-1-yl)butyl]-N-methoxybenzamide] displayed a melting point of 125 to 127 °C. With `CCCc1nc2c(N)nc3ccccc3c2n1CCCCN(OC)C(=O)Nc1ccccc1` [Example 9] the figure was 164 to 166 °C; with `CON=C(C)CC(C)(C)Cn1c(C)nc2c(N)nc3ccccc3c21` [Example 39, 5-(4-Amino-2-methyl-1H-imidazo[4,5-c]quinolin-1-yl)-4,4-dimethylpentan-2-one O-methyl-oxime], 193 to 195 °C. Then `CCCc1nc2c(N)nc3ccccc3c2n1CCCC(C)N(OC)C(C)=O` (centres unmarked) [Example 10, N-[4-(4-Amino-2-propyl-1H-imidazo[4,5-c]quinolin-1-yl)-1-methylbutyl]-N-methoxy-acetamide], with 140 to 142 °C. Then `CON=C(C)CCCn1c(C)nc2c(N)nc3ccccc3c21` [Example 32, 5-(4-Amino-2-methyl-1H-imidazo[4,5-c]quinolin-1-yl)pentan-2-one O-methyloxime], with 158 to 161 °C; and `CCOCc1nc2c(N)nc3cccnc3c2n1CCCCN(OC)C(=O)NC(C)C` [Example 21, 1-[4-(4-Amino-2-ethoxymethyl-1H-imidazo[4,5-c][1,5]naphthyridin-1-yl)butyl]-3-isopropyl-1-methoxyurea], with 146 to 147 °C; and `CC(CCCn1c(C)nc2c(N)nc3ccccc3c21)=NO` [Example 30, 5-(4-Amino-2-methyl-1H-imidazo[4,5-c]quinolin-1-yl)pentan-2-one oxime], with 264 to 266 °C.

In the case of `CCOCc1nc2c(N)nc3ccccc3c2n1CCCC(C)N(OC)S(C)(=O)=O` (centres unmarked) [Example 13, N-[4-(4-Amino-2-ethoxymethyl-1H-imidazo[4,5-c]quinolin-1-yl)-1-methylbutyl]-N-methoxymethanesulfonamide], the melting point fell in the range of 146 to 148 °C.

For the compound `CCCc1nc2c(N)nc3ccccc3c2n1CCCCN(OC)S(C)(=O)=O` [Example 8, N-[4-(4-Amino-2-propyl-1H-imidazo[4,5-c]quinolin-1-yl)butyl]-N-methoxymethanesulfonamide], the melting point was 178 to 188 °C. The compound `CCCCCCC(CCCn1c(CCC)nc2c(N)nc3ccccc3c21)=NO` [Example 38, 1-(4-Amino-2-propyl-1H-imidazo[4,5-c]quinolin-1-yl)decan-4-one oxime] showed a melting point of 113 to 115 °C. Compound `CCCCc1nc2c(N)nc3ccccc3c2n1CCCC(C)=NOC` [Example 33, 5-(4-Amino-2-butyl-1H-imidazo[4,5-c]quinolin-1-yl)pentan-2-one O-methyloxime] showed a melting point of 157 to 159 °C. `CCCc1nc2c(N)nc(C)c(C)c2n1CCCCN(O)C(=O)NC(C)C` [Example 23, 1-[4-(4-Amino-6,7-dimethyl-2-propyl-1H-imidazo[4,5-c]pyridin-1-yl)butyl]-1-hydroxy-3-isopropylurea] displayed a melting point of 138.5 to 140 °C.

Turning to `CCCc1nc2c(N)nc3ccccc3c2n1CCCCN(OC)C(C)=O` [Example 6, N-[4-(4-Amino-2-propyl-1H-imidazo[4,5-c]quinolin-1-yl)butyl]-N-methoxyacetamide], the melting point is 138 to 140 °C. For `CCCc1nc2c(N)nc3cccnc3c2n1CCCCN(OC)C(=O)Nc1ccccc1` [Example 19, N-[4-(4-Amino-2-propyl-1H-imidazo[4,5-c][1,5]naphthyridin-1-yl)butyl]-N-methoxy-N′-phenylurea], the melting point is 155 to 156 °C. With `CCCc1nc2c(N)nc(C)c(C)c2n1CCCCN(OC)C(=O)c1ccccc1` [Example 27, N-Methoxy-N-[4-(4-amino-6,7-dimethyl-2-propyl-1H-imidazo[4,5-c]pyridin-1-yl)-butyl]benzamide] the figure was 136 to 137 °C; with `CC(CCCn1c(C)nc2c(N)nc3ccccc3c21)=NOCc1ccccc1` [Example 31, 5-(4-Amino-2-methyl-1H-imidazo[4,5-c]quinolin-1-yl)pentan-2-one O-benzyloxime], 146 to 148 °C; with `CCCc1nc2c(N)nc(C)c(C)c2n1CCC/C(C)=N/OC` [Example 5, 5-(4-Amino-6,7-dimethyl-2-propyl-1H-imidazo[4,5-c]pyridine-1-yl)pentan-2-one O-methyloxime], 144 to 145.5 °C.

Regarding `CCCc1nc2c(N)nc(C)c(C)c2n1CCCCN(OC)C(=O)OC(C)(C)C` [Example 26, N-[4-(4-Amino-6,7-dimethyl-2-propyl-1H-imidazo[4,5-c]pyridin-1-yl)butyl]-N-[tert-butyl-carbamate]-O-methylhydroxylamine], the melting point was 127 to 128 °C. On to `CCCc1nc2c(N)nc3cccnc3c2n1CCCCN(OC)C(=O)NC(C)C` [Example 3, N-[4-(4-Amino-2-propyl-1H-imidazo[4,5-c][1,5]naphthyridin-1-yl)butyl]-N′-isopropyl-N-methoxyurea], for which the melting point lay within 161 to 162 °C.

Compound `CCOCc1nc2c(N)nc3cccnc3c2n1CCCCN(OC)C(C)=O` [Example 20, N-[4-(4-amino-2-ethoxymethyl-1H-imidazo[4,5-c][1,5]naphthyridin-1-yl)butyl]-N-Methoxyacetamide] had a melting point of 180 to 181 °C. As to `CCOCc1nc2c(N)nc3ccccc3c2n1C/C(CC)=N/OC` [Example 48, 1-[4-Amino-2-(ethoxymethyl)-1H-imidazo[4,5-c]quinolin-1-yl]butan-2-one O-methyloxime], the melting point is 175 to 178 °C. With `CCCc1nc2c(N)nc(C)c(C)c2n1CCCCN(O)C(=O)OC(C)(C)C` [Example 14, N-[4-(4-Amino-6,7-dimethyl-2-propyl-1H-imidazo[4,5-c]pyridin-1-yl)butyl]-N-[tert-butyl carbamate]hydroxylamine] the figure was 157 to 158.5 °C. With `CCCc1nc2c(N)nc3ccccc3c2n1CC(C)(C)CC(C)=NOC` [Example 40, 5-(4-Amino-2-propyl-1H-imidazo[4,5-c]quinolin-1-yl)-4,4-dimethylpentan-2-one O-methyloxime] the figure was 196 to 198 °C; with `CON(CCCCn1c(C)nc2c(N)nc3ccccc3c21)C(N)=O` [Example 46, N-[4-(4-Amino-2-methyl-1H-imidazo[4,5-c]quinolin-1-yl)butyl]-N-methoxyurea], 158 to 160 °C; with `CCCc1nc2c(N)nc3cccnc3c2n1CCCCN(OC)C(C)=O` [Example 1, N-[4-(4-Amino-2-propyl-1H-imidazo[4,5-c]-1,5-naphthyridin-1-yl)butyl]-N-methoxyacetamide], 155 to 156 °C. Compound `CCOCc1nc2c(N)nc3ccccc3c2n1CCCC(C)=NOCc1ccccc1` (as salt: hydrochloride) [Example 36, 5-(4-Amino-2-ethoxymethyl-1H-imidazo[4,5-c]quinolin-1-yl)pentan-2-one O-benzyloxime hydrochloride] displayed a melting point of 184 to 186 °C. `CON=C(C)CC(C)(C)Cn1cnc2c(N)nc3ccccc3c21` [Example 41, 5-(4-Amino-1H-imidazo[4,5-c]quinolin-1-yl)-4,4-dimethylpentan-2-one O-methyloxime] gave a melting point of 148 to 150 °C.

Compound `CCCc1nc2c(N)nc(C)c(C)c2n1CCCCN(O)C(=O)c1ccccc1` [Example 25, N-Hydroxy-N-[4-(4-amino-6,7-dimethyl-2-propyl-1H-imidazo[4,5-c]pyridin-1-yl)-butyl]benzamide] yielded a melting point of 132 to 134 °C. `CCCCc1nc2c(N)nc3ccccc3c2n1CCCC(=NOC)c1ccccc1` [Example 29, 4-(4-Amino-2-butyl-1H-imidazo[4,5-c]quinolin-1-yl)-1-phenylbutan-1-one O-methyloximie] gave a melting point of 198 to 200 °C. The compound `CCCc1nc2c(N)nc3cc(-c4ccccc4)ccc3c2n1CCCC(C)=NOC` [Example 17, 5-(4-Amino-7-phenyl-2-propyl-1H-imidazo[4,5-c]quinolin-1-yl)pentan-2-one O-methyloxime] registered a melting point of 191 to 192 °C.

For `CCCCc1nc2c(N)nc3ccccc3c2n1CCC/C=N/OC` [Example 42, (1E,Z)-4-(4-amino-2-butyl-1H-imidazo[4,5-c]quinolin-1-yl)butanal O-methyloxime], the melting point fell in the range of 153 to 155 °C. In turn, `CCCc1nc2c(N)nc3cc(-c4ccccc4)ccc3c2n1CCCC(C)N(OC)C(=O)NC(C)C` (centres unmarked) [Example 18, 1-[4-(4-Amino-7-phenyl-2-propyl-1H-imidazo[4,5-c]quinolin-1-yl)-1-methylbutyl]-3-isopropyl-1-methoxyurea] showed a melting point of 101 to 103 °C.

`CCCc1nc2c(N)nc3ccccc3c2n1CCCCN(O)C(C)=O` [Example 43, N-[4-(4-Amino-2-propyl-1H-imidazo[4,5-c]quinolin-1-yl)butyl]-N-hydroxyacetamide] came in with a melting point of 191 to 193 °C. `CCCc1nc2c(N)nc3ccccc3c2n1CCCC(CC(C)C)=NO` [Example 37, 1-(4-Amino-2-propyl-1H-imidazo[4,5-c]quinolin-1-yl)-6-methylheptan-4-one oxime] gave a melting point of 207 to 209 °C. Then `CCCc1nc2c(N)nc3ccccc3c2n1CCCC(C)N(OC)C(=O)Nc1ccccc1` (centres unmarked) [Example 11, 1-[4-(4-Amino-2-propyl-1H-imidazo[4,5-c]quinolin-1-yl)-1-methylbutyl]-1-methoxy-3-phenylurea], with 140 to 142 °C.
